Assay results as given in PMC10313368 (The Journal of Clinical Investigation, 2023).

Test system: HUVECs
Experiment: mRNA angiogenesis array (TaqMan Array qPCR) in HUVECs
Type: cell-based, human
Set-up: ANG,RNASE4, array raw value (Figure 8B, well A10) / GAPDH, array raw value (Figure 8B, well A2) / EDIL3, array raw value (Figure 8B, well B2) / FGF1, array raw value (Figure 8B, well B4) / TIMP2, array raw value (Figure 8B, well E10) / SEMA3F, array raw value (Figure 8B, well E6) / CEACAM1, array raw value (Figure 8B, well F2) / LYVE1, array raw value (Figure 8B, well F6): scale not given here
Conditions: HUVEC, 1%O2+32-134D
Method: Angiogenesis array. Total RNA was isolated from MIO-MI cells (8 hours) and HUVECs (16 […]
cDNA was prepared with QuantiTect® Reverse Transcription Kit (Qiagen, Cat# 205311). RT-qPCR assay was performed with pre-configured TaqMan Array 96-Well FAST Plate for human angiogenic gene expression (Applied Biosystems, Inc) following the manufacture’s protocol. Each plate contains pre-defined genes including 18S, GAPDH and HPRT1 endogenous controls.
TaqMan Array plates were prepared by loading on each well 5 μl of cDNA sample (30 ng) with nuclease-free water and 5 μl of TaqMan™ Fast Advanced Master Mix (Applied Biosystem, Cat# […]
4444554). The reaction was performed using the QuantStudio™ 3 Flex Real‐Time PCR System as follows: 2 minutes at 50°C (stage 1); 10 minutes at 95°C (stage 2); 15 seconds at 95°C and 1 minutes at 60°C for 40 cycles (stage 3). The data were analyzed by using HPRT1 as endogenous […]
The clustering heatmaps were produced with “pheatmap” library in R with scale = row and clustering method = complete.
HUVEC cells, Euclidean distance was used to quantify the difference in qPCR screening. The Euclidean distance was calculated using “dist” function from R’s default stat library that measures the distance between 2 vectors (i.e., total qPCR expression values in control and treatment). In […]

For Brc1ccc2c(-c3csc(-c4c[nH]c5c(Br)cccc45)n3)c[nH]c2c1 [32-134D, 4-(6-bromo-1H-indol-3-yl)-2-(7-bromo-1H-indol-3-yl)thiazole], the “18S, array raw value (Figure 8B, well A1)” value was 20.1818, the “ADAMTS1, array raw value (Figure 8B, well D10)” value was 29.7994 and the “AMOT, array raw value (Figure 8B, well D12)” value was 39.0386. The “ANG,RNASE4, array raw value (Figure 8B, well A10)” value was 28.1406, the “ANGPT1, array raw value (Figure 8B, well A11)” value was 30.8384 and the “ANGPT2, array raw value (Figure 8B, well A12)” value was 32.8047. For the same molecule, the “ANGPTL2, array raw value (Figure 8B, well E12)” value was 30.2341, the “ANGPTL4, array raw value (Figure 8B, well H5)” value was 21.86 and the “CD44, array raw value (Figure 8B, well E1)” value was 23.3811. For the same molecule, the “CDH5, array raw value (Figure 8B, well E2)” value was 24.9237, the “CEACAM1, array raw value (Figure 8B, well F2)” value was 29.9396 and the “COL4A1, array raw value (Figure 8B, well G2)” value was 30.6479. The “COL4A2, array raw value (Figure 8B, well G3)” value was 28.7346, the “COL18A1, array raw value (Figure 8B, well G6)” value was 29.7073 and the “CSF3, array raw value (Figure 8B, well H1)” value was 33.4203. For the same molecule, the “CTGF, array raw value (Figure 8B, well C10)” value was 23.3834, the “CXCL2, array raw value (Figure 8B, well E3)” value was 30.6168 and the “CXCL10, array raw value (Figure 8B, well D5)” value was 36.21. For the same molecule, the “EDIL3, array raw value (Figure 8B, well B2)” value was 26.4682, the “EPHB2, array raw value (Figure 8B, well B3)” value was 28.307 and the “FGF1, array raw value (Figure 8B, well B4)” value was 29.8889. The “FGF2, array raw value (Figure 8B, well B5)” value was 30.0294, the “FIGF, array raw value (Figure 8B, well F12)” value was 33.3841 and the “FLT1, array raw value (Figure 8B, well E5)” value was 30.21. For the same molecule, the “FN1, array raw value (Figure 8B, well G7)” value was 28.5669, the “FOXC2, array raw value (Figure 8B, well G1)” value was 27.8513 and the “FST, array raw value (Figure 8B, well B7)” value was 31.5936. For the same molecule, the “GAPDH, array raw value (Figure 8B, well A2)” value was 20.3521, the “GRN, array raw value (Figure 8B, well H2)” value was 22.2393 and the “GUSB, array raw value (Figure 8B, well A4)” value was 25.0498. For the same molecule, the “HEY1, array raw value (Figure 8B, well F3)” value was 34.3049, the “HPRT1, array raw value (Figure 8B, well A3)” value was 25.0367 and the “HSPG2, array raw value (Figure 8B, well G5)” value was 27.52. The “IFNB1, array raw value (Figure 8B, well D3)” value was 35.432, the “IL8, array raw value (Figure 8B, well B9)” value was 26.4133 and the “IL12A, array raw value (Figure 8B, well D6)” value was 34.4259. For the same molecule, the “ITGA4, array raw value (Figure 8B, well D2)” value was 28.3072, the “ITGAV, array raw value (Figure 8B, well F4)” value was 26.1181 and the “ITGB3, array raw value (Figure 8B, well H6)” value was 25.3974. For the same molecule, the “KDR, array raw value (Figure 8B, well F10)” value was 30.1984, the “LYVE1, array raw value (Figure 8B, well F6)” value was 34.6146 and the “MDK, array raw value (Figure 8B, well B11)” value was 23.8862. The “MMP2, array raw value (Figure 8B, well A9)” value was 21.2904, the “NRP1, array raw value (Figure 8B, well H10)” value was 28.4453 and the “NRP2, array raw value (Figure 8B, well F9)” value was 25.1088.
